Test results published in patent publication US20220195455A1, “DELIVERY OF CRISPR/MCAS9 THROUGH EXTRACELLULAR VESICLES FOR GENOME EDITING” (University of Georgia Research Foundation, Inc., priority 2019, published 2022).

How the values were obtained:
[1] = tested on: DU145, NIH 3T3, SYF1, 22Rv1 cells; test: Encapsulation of Src family kinase variants into EVs of transduced cells (Western blot, EVs vs TCL); assay type: cell-based; details: for levels of Fyn kinase in EVs: in comparison with Fyn(WT)
Experimental: The transfected cells were grown in exosome-free FBS medium and EVs were isolated from the conditioned medium. […] Ten μg of protein from EVs or TCL were loaded. Src protein levels were quantified by Image J software. […] Data were expressed as mean±SEM, ** p<0.01; *** p<0.001. […] The transduced cells were grown in EVs/exosome-free FBS medium with (Lane 4-6 and 10-12) or without (Lane 1-3 and 7-9) 50 μM myristic acid-azide (an analog of myristic acid). The myristoylated proteins from either EVs or TCL were detected using Click chemistry. Ten μg of protein from EVs or TCL were loaded.
EVs were isolated from conditioned medium by sequential ultracentrifugation. […] Ten μg of protein from EVs or TCL were loaded. […] Coomassie staining was used to show equivalent loading of samples. The Src expression level was quantified by Image J software. Data are expressed as mean±SEM, * p<0.05; ** p<0.01; *** p<0.001.
The transduced cells were grown in EVs/exosome-free medium for 24 h and EVs were isolated from the conditioned medium. Ten μg of protein from extracellular vesicles (EVs) or total cell lysates (TCL) were loaded. […] Data are expressed as mean±SEM. * p<0.05; **** p<0.0001; NS: Not significant.
The transduced cells were grown in exosome-free FBS medium. EVs were collected from the conditioned cell culture medium. Expression levels of Src in extracellular vesicles (EVs) and total cell lysates (TCL) from the transduced cells were evaluated by Western blotting. 10 μg of protein from Exo or TCL were loaded. […] The Src protein was quantified by Image J software. […] Data are expressed as mean±SEM. ** p<0.01.
To isolate EVs from the cell culture medium, the cell lines were grown in ATCC recommended medium in a 150-mm petri-dish. […] The size, zeta potential, and concentration of EVs were measured by nanoparticle tracking analysis (NTA, Particle Metrix, Germany) with ZetaView software for data record and analysis.
The total cell lysate and EVs dissolved in RIPA buffer were subjected to the standard immunoblotting analysis. […] The band intensity was quantified by Image J software.

full length NMT1 protein = molecular target: T1, full length NMT1 protein (Homo sapiens, UniProt P30419); test: NMT1 activity assay (CoA release, fluorescence); assay type: biochemical; details: octapeptide as NMT1 substrate;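 note: released CoA from NMT1-catalysed myristoylation of octapeptide substrates detected by fluorescence after reaction with a maleimide coumarin dye (excitation 390 nm, emission 479 nm), triplicate points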
T1 construct: Km and Vmax catalyzed by full length NMT1 protein were calculated
T1 sequence (P30419 1-496): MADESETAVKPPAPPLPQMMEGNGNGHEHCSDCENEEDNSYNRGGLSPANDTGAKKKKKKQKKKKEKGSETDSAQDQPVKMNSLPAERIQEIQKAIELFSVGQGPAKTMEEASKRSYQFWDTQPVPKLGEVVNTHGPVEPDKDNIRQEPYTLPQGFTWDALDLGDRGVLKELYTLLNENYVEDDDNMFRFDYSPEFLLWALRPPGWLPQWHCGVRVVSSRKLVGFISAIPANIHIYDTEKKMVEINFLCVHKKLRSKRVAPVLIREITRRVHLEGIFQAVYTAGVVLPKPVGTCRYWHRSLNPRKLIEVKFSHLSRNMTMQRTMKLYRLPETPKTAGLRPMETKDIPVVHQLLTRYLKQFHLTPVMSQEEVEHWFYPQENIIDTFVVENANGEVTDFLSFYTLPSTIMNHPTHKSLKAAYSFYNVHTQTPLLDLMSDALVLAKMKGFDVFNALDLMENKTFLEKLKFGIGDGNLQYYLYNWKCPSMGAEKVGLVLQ
Experimental: The amount of the released CoA were reacted with 7-diethylamino-3-(4′-maleimidylphenyl)-4-methylcoumarin. The assay was performed in 96-well black microplates. The produced fluorescence intensity was measured by Flex Station 3, and detected by microplate reader (excitation at 390 nm; emission at 479 nm).
The amount of the released CoA were reacted with 7-diethylamino-3-(4′-maleimidylphenyl)-4-methylcoumarin. The assay was performed in 96-well black microplates. The produced fluorescence intensity was measured by Flex Station 3, and detected by microplate reader (excitation at 390 nm; emission at 479 nm). To measure the Km and Vmax of NMT1 which catalyzed various octapeptides substrates derived from various proteins, twenty-five octapeptides were synthesized by GenScript. […] Each data point has three repeats.
Km and Vmax catalyzed by full length NMT1 protein were calculated.

PC3 cells = test: Lipid raft disruption, cholesterol staining; assay type: cell-based, human; details: 1 μM, 24 h
Experimental: PC3 cells were treated with vehicle control or 1 μM Filipin for 24 h. The treated cells were visualized under a fluorescence microscope. The treated cells were stained with Filipin III and representative images were taken.

PC3 or DU145 cells = test: Lipid raft disruption, Src kinase in EVs by immunoblotting; assay type: cell-based, human; details: 0-1 μM, 24 h
Experimental: PC3 and DU145 cells were grown overnight. The medium was replaced with the same growth medium but containing EVs/exosome-free FBS with DMSO (control) or Filipin III (0-1 μM) for 24 h to disrupt lipid rafts. The EVs were isolated from the conditioned medium by sequential centrifugation as described above. The isolated EVs and cells were lysed with RIPA buffer for immunoblotting analysis.

Km (full length NMT1 protein)	Vmax (full length NMT1 protein)	Compound	levels of Fyn kinase in EVs [1]	further results
		Fyn(C3S/C6S): Fyn mutant with loss of palmitoylation (GSVQSK)	significantly increased	
28.2 µM	54.7 µM/min	GSCCSCPD (SEQ ID NO: 370) [FRS2]		
		CCCCC[C@@H](O)[C@H]1C(=O)O[C@H](C)[C@@H](O)/C=C/C=C/C=C/C=C/C=C(\C)[C@@H](O)C[C@H](O)C[C@H](O)C[C@H](O)C[C@H](O)C[C@H](O)C[C@@H]1O [Filipin III]		cholesterol levels (PC3 cells): significantly decreased; expression levels of Src kinase in EVs (PC3 or DU145 cells): did not significantly change
		Fyn(WT): wild type Fyn kinase (GCVQCK)		levels of kinase in EVs in comparison with total cell lysate [1]: decreased
		Fyn(G2A): Fyn mutant with loss of myristoylation (ACVQCK)	significantly inhibited	
40 µM	9.6 µM/min	GQSQSGGH (SEQ ID NO: 364) [PSMC1]		
